Measurements published in US7960377B2 (priority 2008, dated 2011).
Like-named read-outs stand apart in the source and are kept apart here.

Columns and labels:
Experiment in all cases: cell-based
rat CB2 receptor = molecular target: T1, rat CB2 receptor (Rattus norvegicus, UniProt Q9QZN9); assay type: cell-based
T1 sequence (Q9QZN9 1-360): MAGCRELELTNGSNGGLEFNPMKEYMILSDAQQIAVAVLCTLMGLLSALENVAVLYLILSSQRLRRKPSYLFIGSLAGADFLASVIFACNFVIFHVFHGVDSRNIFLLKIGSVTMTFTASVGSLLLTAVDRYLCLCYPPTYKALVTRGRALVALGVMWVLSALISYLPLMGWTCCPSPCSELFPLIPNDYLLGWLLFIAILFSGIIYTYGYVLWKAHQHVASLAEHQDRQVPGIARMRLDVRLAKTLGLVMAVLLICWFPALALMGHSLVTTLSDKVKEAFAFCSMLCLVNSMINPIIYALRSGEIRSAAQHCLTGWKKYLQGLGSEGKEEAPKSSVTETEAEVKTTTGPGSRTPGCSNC

human CB1 receptor = human CB1 receptor (Homo sapiens, UniProt P21554)
human CB2 receptor = human CB2 receptor (Homo sapiens, UniProt P34972); assay type: cell-based
Chain of human CB2 receptor (P34972 whole entry): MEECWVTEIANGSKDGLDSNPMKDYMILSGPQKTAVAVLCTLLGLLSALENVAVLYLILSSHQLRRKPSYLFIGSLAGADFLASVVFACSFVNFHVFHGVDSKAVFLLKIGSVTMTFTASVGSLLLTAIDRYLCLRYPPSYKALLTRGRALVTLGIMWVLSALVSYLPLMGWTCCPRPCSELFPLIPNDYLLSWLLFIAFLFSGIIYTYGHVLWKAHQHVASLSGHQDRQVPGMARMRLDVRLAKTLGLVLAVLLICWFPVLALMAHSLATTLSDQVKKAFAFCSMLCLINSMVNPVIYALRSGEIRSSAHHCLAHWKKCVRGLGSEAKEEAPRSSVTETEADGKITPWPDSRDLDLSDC

Chain of human CB1 receptor (P21554 whole entry): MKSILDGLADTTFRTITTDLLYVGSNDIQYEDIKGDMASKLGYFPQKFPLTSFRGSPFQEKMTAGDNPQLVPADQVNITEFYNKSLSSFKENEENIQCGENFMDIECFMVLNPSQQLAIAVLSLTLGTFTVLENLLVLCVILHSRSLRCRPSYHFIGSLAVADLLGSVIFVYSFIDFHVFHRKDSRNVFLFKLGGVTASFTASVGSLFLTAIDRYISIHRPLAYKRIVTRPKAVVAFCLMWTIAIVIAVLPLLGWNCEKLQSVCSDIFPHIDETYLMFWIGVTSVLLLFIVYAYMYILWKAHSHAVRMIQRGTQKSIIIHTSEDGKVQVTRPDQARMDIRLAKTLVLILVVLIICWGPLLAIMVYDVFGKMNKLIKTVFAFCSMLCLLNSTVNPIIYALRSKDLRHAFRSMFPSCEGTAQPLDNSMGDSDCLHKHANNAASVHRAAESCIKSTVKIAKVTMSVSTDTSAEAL

| SMILES | EC50 (rat CB2 receptor) | EC50 (human CB1 receptor) | EC50 (human CB2 receptor; change in intracellular cAMP, CHO-K1 hCB2 cells, class AR, read-out: EC50 values for human CB2 receptor) | EC50 (human CB2 receptor) |
| --- | --- | --- | --- | --- |
| O=C(NC1(C(=O)O)CC1)c1cnc2c(c1)N(S(=O)(=O)c1ccc(C(F)(F)F)cc1)CCO2 [Example 206, 1-(1-(4-(trifluoromethyl)phenylsulfonyl)-2,3-dihydro-1H-pyrido[2,3-b][1,4]oxazine-7-carboxamido)cyclopropanecarboxylic acid] | > 30 µM | > 30 µM | > 30 µM | – |
| CC(C)(C)NC(=O)c1cnc2c(c1)N(Cc1ccc(F)cc1)C(=O)CO2 [Example 218, N-tert-butyl-1-(4-fluorobenzyl)-2-oxo-2,3-dihydro-1H-pyrido[2,3-b][1,4]oxazine-7-carboxamide] | ≤ 0.03 µM | > 30 µM | – | ≤ 0.03 µM |
